Experimental data taken from PMC5113665, “HF‐Free Boc Synthesis of Peptide Thioesters for Ligation and Cyclization” (Angewandte Chemie (International Ed. in English), 2016).
Non-standard residues stand in square brackets, D forms with d. Residues, ends and D or L forms follow the SMILES beside them. Phe(4-F) = N[C@@H](Cc1ccc(F)cc1)C(=O)O; d2Nal = N[C@H](Cc1ccc2ccccc2c1)C(=O)O; dNle = CCCC[C@@H](N)C(=O)O

Molecular target: T1, KRAS-GTPγS (Homo sapiens, UniProt P01116)
T1 construct: proteins (amino acids 1-185) were; GST (N, cleaved yes); made in house; host or cells: Escherichia coli BL21
T1 sequence (P01116 1-185 isoform P01116-2): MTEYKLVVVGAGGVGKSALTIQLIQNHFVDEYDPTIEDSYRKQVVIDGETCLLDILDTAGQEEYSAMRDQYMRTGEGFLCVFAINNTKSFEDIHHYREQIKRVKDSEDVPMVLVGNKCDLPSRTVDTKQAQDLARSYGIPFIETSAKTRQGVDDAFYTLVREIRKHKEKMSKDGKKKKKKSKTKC
Experiment: Microscale thermophoresis binding to labeled KRAS-GTPγS
Details: 25 °C, NT-647 labelled protein, GTPγS-loaded, average of three measurements, read-out: affinity for labeled KRAS-GTPγS
Excerpt: Cyclization in acetonitrile in the presence of an aqueous imidazole solution gave good results (Figure S23, SI). […] The binding was characterized by microscale thermophoresis studies (Figure 4 D).
VI. Biological analysis of Cyclorasin 9A5
Protein Expression and Purification material and methods:
Human wt-K-Ras and oncogenic K-Ras_G12V proteins (amino acids 1-185) were cloned in pGEX-6P-1 vector that encodes a glutathione S-transferase (GST) tag at the N-terminal of the expressed protein. The constructs were transformed in Escherichia coli BL21 cells – the cells were grown in Luria Broth (LB) media in the presence of 0.1 mg mL-1 ampicillin at 37 °C to an OD 700 then induced by the addition of 0.1 mM IPTG. The bacterial culture was then incubated overnight at 18 °C and harvested the second day by centrifugation. […]
Microscale thermophoresis (MST) measurements were performed using a NanoTemper Monolith™ NT.115 instrument (NanoTemper Technologies GmbH, München, Germany). […] Labeling levels (generally in the range 0.3-0.4 dye molecules per protein) were determined using calculated extinction coefficients and e647 = 250,000 M-1cm-1 for the dye concentration. […]
GTPγS (B) and K-Ras-G12V_ GDP (D). The Kd values for each interaction were calculated as an average of three measurements. […]

Kd: 600 nM
SMILES: CCCC[C@H]1NC(=O)[C@H](Cc2ccc(F)cc2)NC(=O)[C@H](CCCNC(=N)N)NC(=O)[C@@H](Cc2ccc3ccccc3c2)NC(=O)[C@H](CCCNC(=N)N)NC(=O)[C@H](CCCNC(=N)N)NC(=O)[C@H](CCCNC(=N)N)NC(=O)[C@@H](C)NC(=O)[C@H]([C@@H](C)O)NC(=O)[C@H](Cc2c[nH]c3ccccc23)NC(=O)[C@H](CCC(N)=O)NC1=O [cyclorasin 9A5] (cyclo(WT[dA]RRR[d2Nal]R[Phe(4-F)][dNle]Q))
